According to ChEMBL document CHEMBL1909046, “DrugMatrix in vitro pharmacology data”:

What was measured:
[1] = target: Platelet-activating factor receptor (Homo sapiens, UniProt P25105); experiment: biochemical; type: tissue-based; details: platelet; further: in other assays of this panel Not Active means under 50% inhibition at 10 µM
[2] = target: T1, 5-hydroxytryptamine receptor 1A (Rattus norvegicus, UniProt P19327); type: cell membranes, CHO-K1, Membrane; details: for Ki: read-out: Ki; on all read-outs here: in other assays of this panel Not Active means under 50% inhibition at 10 µM
T1 sequence (P19327 whole entry): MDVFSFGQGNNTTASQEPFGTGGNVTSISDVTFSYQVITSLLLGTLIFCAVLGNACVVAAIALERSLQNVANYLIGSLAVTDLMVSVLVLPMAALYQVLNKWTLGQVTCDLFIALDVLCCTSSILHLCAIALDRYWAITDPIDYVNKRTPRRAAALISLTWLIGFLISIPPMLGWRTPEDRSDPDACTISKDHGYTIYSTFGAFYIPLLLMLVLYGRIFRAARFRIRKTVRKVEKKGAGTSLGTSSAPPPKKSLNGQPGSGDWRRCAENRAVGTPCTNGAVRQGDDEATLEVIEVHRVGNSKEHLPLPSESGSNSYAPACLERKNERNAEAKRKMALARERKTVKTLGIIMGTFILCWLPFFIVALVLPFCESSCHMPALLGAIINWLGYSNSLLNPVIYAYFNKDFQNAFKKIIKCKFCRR

[3] = target: T2, Angiotensin-converting enzyme (Oryctolagus cuniculus, UniProt P12822); experiment: biochemical; type: tissue-based, Lung;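 further: enzymatic inhibition of angiotensin-converting enzyme measured with FAPGG as the substrate; in other assays of this panel Not Active means under 50% inhibition at 10 µM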
T2 sequence (P12822 whole entry): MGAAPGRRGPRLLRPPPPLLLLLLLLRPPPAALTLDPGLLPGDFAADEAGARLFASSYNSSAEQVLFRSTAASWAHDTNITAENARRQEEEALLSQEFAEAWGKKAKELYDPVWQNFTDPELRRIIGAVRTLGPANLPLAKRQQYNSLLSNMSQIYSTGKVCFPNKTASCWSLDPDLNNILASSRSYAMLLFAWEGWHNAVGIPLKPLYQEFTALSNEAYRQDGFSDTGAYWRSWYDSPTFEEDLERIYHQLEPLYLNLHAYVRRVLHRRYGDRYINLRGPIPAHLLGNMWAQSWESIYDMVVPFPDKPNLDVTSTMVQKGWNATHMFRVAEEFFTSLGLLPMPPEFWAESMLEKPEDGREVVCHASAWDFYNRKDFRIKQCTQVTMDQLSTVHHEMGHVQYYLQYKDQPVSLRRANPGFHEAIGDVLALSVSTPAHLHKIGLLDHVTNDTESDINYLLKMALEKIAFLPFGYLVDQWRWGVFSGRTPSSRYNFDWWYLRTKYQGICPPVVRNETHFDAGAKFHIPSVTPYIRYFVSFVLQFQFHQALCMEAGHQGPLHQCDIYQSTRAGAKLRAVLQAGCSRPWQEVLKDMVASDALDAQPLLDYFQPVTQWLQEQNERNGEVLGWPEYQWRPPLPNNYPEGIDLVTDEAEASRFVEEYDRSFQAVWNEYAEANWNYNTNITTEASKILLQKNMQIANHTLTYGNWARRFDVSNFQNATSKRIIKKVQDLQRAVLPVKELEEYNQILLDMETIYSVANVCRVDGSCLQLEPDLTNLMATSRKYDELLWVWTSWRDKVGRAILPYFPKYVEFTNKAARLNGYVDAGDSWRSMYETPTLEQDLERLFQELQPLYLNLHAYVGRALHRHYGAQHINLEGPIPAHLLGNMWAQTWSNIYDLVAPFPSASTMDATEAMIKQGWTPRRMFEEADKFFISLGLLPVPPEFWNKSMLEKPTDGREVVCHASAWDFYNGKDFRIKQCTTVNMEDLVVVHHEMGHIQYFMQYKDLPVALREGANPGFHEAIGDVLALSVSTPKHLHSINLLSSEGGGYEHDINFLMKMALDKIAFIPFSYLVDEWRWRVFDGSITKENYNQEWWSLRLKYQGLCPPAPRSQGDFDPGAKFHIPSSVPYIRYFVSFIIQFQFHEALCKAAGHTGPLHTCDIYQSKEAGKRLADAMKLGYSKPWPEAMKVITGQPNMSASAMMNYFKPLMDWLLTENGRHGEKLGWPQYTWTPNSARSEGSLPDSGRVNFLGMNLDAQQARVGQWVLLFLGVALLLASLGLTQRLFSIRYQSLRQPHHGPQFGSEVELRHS

[4] = target: 5-hydroxytryptamine receptor 4 (Cavia porcellus, UniProt O70528); type: cell membranes, Dunkin-Hartley, Striatum, Membrane; further: in other assays of this panel Not Active means under 50% inhibition at 10 µM
Sequence of 5-hydroxytryptamine receptor 4 (O70528 whole entry): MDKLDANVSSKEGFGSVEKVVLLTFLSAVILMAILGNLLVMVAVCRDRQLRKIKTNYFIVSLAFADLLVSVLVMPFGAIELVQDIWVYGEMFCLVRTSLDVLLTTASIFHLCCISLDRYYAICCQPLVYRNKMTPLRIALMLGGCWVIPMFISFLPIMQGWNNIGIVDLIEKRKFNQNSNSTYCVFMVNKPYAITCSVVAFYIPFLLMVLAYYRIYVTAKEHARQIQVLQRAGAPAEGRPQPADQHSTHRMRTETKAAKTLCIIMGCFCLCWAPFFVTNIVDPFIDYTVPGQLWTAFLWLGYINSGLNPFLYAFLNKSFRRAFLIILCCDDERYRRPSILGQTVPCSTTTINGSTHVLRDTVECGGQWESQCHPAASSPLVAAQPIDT

[5] = target: Mitogen-activated protein kinase 3 (Homo sapiens, UniProt P27361); experiment: DRUGMATRIX: Protein Serine/Threonine Kinase, ERK1 enzyme inhibition (substrate: Myelin Basic Protein); design: species or system Escherichia coli; details: Not Active = under 50% inhibition at 10 µM
Sequence of Mitogen-activated protein kinase 3 (P27361 whole entry): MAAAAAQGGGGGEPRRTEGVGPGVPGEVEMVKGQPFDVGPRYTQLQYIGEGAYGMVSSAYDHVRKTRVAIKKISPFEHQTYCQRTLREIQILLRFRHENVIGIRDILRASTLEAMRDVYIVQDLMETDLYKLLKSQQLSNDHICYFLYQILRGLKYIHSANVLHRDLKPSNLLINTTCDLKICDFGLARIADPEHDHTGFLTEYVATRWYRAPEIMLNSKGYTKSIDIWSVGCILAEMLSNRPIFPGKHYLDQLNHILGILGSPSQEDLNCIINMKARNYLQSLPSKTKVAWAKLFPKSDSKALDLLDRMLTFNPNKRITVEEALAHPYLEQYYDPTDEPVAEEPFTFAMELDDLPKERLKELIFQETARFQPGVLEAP

[6] = DRUGMATRIX: Phosphodiesterase PDE4 enzyme inhibition (substrate: [3H]cAMP + cAMP); details: u-937; Not Active = under 50% inhibition at 10 µM
[7] = target: 5-hydroxytryptamine receptor 1B (Rattus norvegicus, UniProt P28564); type: cell membranes, Wistar, Cerebral cortex, Membrane; further: in other assays of this panel Not Active means under 50% inhibition at 10 µM
Sequence of 5-hydroxytryptamine receptor 1B (P28564 whole entry): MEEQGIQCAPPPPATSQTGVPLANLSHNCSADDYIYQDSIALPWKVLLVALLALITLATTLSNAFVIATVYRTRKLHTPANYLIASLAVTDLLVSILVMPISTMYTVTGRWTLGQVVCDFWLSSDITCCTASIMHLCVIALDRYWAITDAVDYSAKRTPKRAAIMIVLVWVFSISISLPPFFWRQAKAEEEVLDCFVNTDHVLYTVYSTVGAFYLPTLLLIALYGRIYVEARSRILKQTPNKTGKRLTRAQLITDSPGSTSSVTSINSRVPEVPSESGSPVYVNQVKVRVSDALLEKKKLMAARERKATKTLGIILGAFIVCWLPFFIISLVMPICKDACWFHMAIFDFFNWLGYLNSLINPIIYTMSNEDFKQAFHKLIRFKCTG

[8] = DRUGMATRIX: GABAA, Muscimol, Central radioligand binding (ligand: [3H] Muscimol); type: cell membranes, Rattus norvegicus, Wistar, Brain, Membrane; details: Not Active = under 50% inhibition at 10 µM
[9] = target: T3, Alpha-1B adrenergic receptor (Rattus norvegicus, UniProt P15823); experiment: DRUGMATRIX: Alpha-1B adrenergic receptor radioligand binding (ligand: prazosin); type: cell membranes, Wistar, Liver, Membrane; details: Not Active = under 50% inhibition at 10 µM; for Ki: read-out: Ki
T3 sequence (P15823 whole entry): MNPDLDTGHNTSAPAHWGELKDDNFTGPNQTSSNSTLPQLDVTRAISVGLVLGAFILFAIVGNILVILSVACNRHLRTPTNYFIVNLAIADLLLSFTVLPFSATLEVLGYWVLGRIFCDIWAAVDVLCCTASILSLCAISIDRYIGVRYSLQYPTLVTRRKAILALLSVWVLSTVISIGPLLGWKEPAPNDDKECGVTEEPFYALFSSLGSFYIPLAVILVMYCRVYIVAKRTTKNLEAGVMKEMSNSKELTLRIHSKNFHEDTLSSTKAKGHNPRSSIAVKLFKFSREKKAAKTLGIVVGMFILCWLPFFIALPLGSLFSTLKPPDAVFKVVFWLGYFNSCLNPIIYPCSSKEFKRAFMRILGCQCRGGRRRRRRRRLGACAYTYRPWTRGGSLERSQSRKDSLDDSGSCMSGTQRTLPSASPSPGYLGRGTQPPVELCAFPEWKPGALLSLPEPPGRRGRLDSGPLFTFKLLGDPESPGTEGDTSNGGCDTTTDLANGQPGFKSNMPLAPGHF

[10] = target: Beta-2 adrenergic receptor (Homo sapiens, UniProt P07550); experiment: DRUGMATRIX: Adrenergic beta2 radioligand binding (ligand: [3H] CGP-12177); type: cell membranes, Membrane; details: cho; Not Active = under 50% inhibition at 10 µM
Sequence of Beta-2 adrenergic receptor (P07550 whole entry): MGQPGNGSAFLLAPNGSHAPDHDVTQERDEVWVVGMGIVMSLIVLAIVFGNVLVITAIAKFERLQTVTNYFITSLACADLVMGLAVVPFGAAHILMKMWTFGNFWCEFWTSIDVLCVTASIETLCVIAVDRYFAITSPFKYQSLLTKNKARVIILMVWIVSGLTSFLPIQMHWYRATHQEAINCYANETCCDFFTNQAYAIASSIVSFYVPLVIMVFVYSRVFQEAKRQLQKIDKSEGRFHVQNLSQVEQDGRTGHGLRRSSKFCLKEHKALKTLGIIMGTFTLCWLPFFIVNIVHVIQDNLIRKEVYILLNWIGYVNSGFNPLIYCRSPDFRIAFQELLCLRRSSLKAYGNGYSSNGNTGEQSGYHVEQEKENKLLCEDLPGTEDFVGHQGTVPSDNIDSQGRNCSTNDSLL

Sequence of Platelet-activating factor receptor (P25105 whole entry): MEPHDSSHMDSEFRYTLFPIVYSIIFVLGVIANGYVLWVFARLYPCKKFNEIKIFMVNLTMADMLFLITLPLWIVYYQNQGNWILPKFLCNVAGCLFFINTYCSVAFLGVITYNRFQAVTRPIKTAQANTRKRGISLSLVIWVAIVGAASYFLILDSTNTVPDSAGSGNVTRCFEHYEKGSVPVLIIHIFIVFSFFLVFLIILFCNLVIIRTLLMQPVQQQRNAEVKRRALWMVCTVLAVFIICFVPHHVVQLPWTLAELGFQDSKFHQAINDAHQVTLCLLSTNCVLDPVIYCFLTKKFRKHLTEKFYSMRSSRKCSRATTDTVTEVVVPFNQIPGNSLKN

Structure (SMILES): CC(CCc1ccccc1)NCC(O)c1ccc(O)c(C(N)=O)c1 (stereo not given) [LABETALOL]
- IC50 [1]: Not Active
- IC50 ([2]; read-out: IC50): 393 nM
- Ki [2]: 225 nM
- IC50 [3]: Not Active
- IC50 [4]: Not Active
- IC50 [5]: Not Active
- IC50 [6]: Not Active
- Ki [6]: Not Active
- IC50 [7]: Not Active
- IC50 [8]: Not Active
- Ki [8]: Not Active
- IC50 ([9]; read-out: IC50): 583 nM
- Ki [9]: 323 nM

Structure (SMILES): CN1CCN2c3ccccc3Cc3ccccc3C2C1 (stereo not given) [MIANSERIN]
- IC50 [1]: Not Active
- IC50 ([2]; read-out: IC50): 872 nM
- Ki [2]: 498 nM
- IC50 [3]: Not Active
- IC50 [10]: Not Active
- IC50 [4]: Not Active
- IC50 [5]: Not Active
- IC50 [7]: Not Active

Structure (SMILES): CC(C)(O)c1ccccc1CC[C@@H](SCC1(CC(=O)O)CC1)c1cccc(/C=C/c2ccc3ccc(Cl)cc3n2)c1 [MONTELUKAST]
- IC50 [1]: Not Active
- IC50 ([2]; cho-k1): Not Active
- IC50 [3]: Not Active
- IC50 [4]: Not Active
- IC50 [5]: Not Active
- IC50 [7]: Not Active

Structure (SMILES): CC(C)(C)NCC(O)c1cc(O)cc(O)c1 (stereo not given) [TERBUTALINE]
- IC50 [1]: Not Active
- IC50 ([2]; cho-k1): Not Active
- IC50 [3]: Not Active
- IC50 [4]: Not Active
- IC50 [5]: Not Active
- IC50 [6]: Not Active
- Ki [6]: Not Active
- IC50 [7]: Not Active
- IC50 [8]: Not Active
- Ki [8]: Not Active
- IC50 [9]: Not Active

Structure (SMILES): CSc1ccc2c(c1)N(CCC1CCCCN1C)c1ccccc1S2 (stereo not given) [THIORIDAZINE]
- IC50 [1]: Not Active
- IC50 ([2]; read-out: IC50): 60 nM
- Ki [2]: 34 nM
- IC50 [3]: Not Active
- IC50 [10]: Not Active
- IC50 [4]: Not Active
- IC50 [5]: Not Active
- IC50 [7]: Not Active

Structure (SMILES): COc1cccc(C2(O)CCCCC2CN(C)C)c1 (stereo not given) [TRAMADOL]
- IC50 [1]: Not Active
- IC50 ([2]; cho-k1): Not Active
- IC50 [3]: Not Active
- IC50 [10]: Not Active
- IC50 [4]: Not Active
- IC50 [5]: Not Active
- IC50 [7]: Not Active

Structure (SMILES): COC(=O)[C@@H]1[C@H]2C[C@H]3c4[nH]c5ccccc5c4CCN3C[C@@H]2CC[C@@H]1O [YOHIMBINE]
- IC50 [1]: Not Active
- IC50 [3]: Not Active
- IC50 [10]: Not Active
- IC50 [4]: Not Active
- IC50 [5]: Not Active
- IC50 [6]: Not Active
- Ki [6]: Not Active
- IC50 [7]: Not Active
- IC50 [8]: Not Active
- Ki [8]: Not Active
- IC50 ([9]; read-out: IC50): 1190 nM
- Ki [9]: 658 nM
